Measurements taken from PMC8217550, “ERRγ enhances cardiac maturation with T-tubule formation in human iPSC-derived cardiomyocytes” (Nature Communications, 2021).

Target: T1, estrogen-related receptor gamma (ERRγ) (Homo sapiens, UniProt P62508)
T1 construct: gene ESRRG; His-tagged ERRγ LBD
T1 sequence (P62508 233-458 limits assumed): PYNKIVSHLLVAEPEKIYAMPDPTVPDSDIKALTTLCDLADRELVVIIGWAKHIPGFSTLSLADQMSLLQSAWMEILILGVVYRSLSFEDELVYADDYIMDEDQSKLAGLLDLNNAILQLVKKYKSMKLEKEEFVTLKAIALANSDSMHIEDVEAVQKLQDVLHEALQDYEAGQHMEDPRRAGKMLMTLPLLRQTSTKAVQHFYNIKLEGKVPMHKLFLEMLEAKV
T1 sequence (Q9UBK2 1-798 partner): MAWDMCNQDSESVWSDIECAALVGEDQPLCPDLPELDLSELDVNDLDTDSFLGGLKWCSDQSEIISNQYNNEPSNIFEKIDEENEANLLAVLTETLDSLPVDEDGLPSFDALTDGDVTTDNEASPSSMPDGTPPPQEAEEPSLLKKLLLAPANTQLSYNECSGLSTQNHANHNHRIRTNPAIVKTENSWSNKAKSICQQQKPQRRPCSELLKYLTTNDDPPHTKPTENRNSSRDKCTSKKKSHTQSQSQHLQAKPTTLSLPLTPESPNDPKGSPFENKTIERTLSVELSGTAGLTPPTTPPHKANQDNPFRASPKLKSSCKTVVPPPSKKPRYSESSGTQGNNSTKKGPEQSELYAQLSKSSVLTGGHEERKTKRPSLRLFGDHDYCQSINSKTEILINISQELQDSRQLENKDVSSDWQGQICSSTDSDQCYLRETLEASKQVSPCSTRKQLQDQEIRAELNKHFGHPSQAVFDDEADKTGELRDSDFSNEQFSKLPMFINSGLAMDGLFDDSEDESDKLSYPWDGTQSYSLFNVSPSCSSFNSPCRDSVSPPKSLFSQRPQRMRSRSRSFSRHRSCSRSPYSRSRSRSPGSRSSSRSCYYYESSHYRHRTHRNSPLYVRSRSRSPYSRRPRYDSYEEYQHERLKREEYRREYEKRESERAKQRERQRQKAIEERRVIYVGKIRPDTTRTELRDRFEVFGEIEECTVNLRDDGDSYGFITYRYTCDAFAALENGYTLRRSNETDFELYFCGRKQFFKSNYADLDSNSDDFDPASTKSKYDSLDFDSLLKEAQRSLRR
Test: LanthaScreen TR-FRET PGC1a coactivator-binding assay (agonist)
Type: biochemical

Question: With `O=C1c2ccc(N3CCOCC3)cc2CN1c1ccc2[nH]c(-c3ccc(Br)cc3)nc2c1` [T112, 2-[2-(4-bromophenyl)-1H-benzimidazol-5-yl]-5-(morpholin-4-yl)-2,3-dihydro-1H-isoindol-1-one] as the molecule, how does the “LanthaScreen TR-FRET PGC1a coactivator-binding assay (agonist)” value read?
Answer: to have ERRγ-agonistic activity with stronger effects than the commercially available ERRγ agonist GSK4716
